From ChEMBL document CHEMBL1857833, “Screening and optimization of specific chemical series against human African Trypanosomiasis (HAT)” come the findings set out here.

Molecules are shown by their SMILES. Values after ≈ are worked out from the molar mass of the structure shown.

The test system of data set [1] is Trypanosoma brucei. Description: DNDI: Inhibition of Human African Trypanosomiasis, SBRI 427, in vitro. Type of data set: functional, organism-based. To be noted: Trypanosoma brucei, SBRI 427; read-out: IC50.
Data set [2] can be described thus: DNDI: Cytotoxicity against L929 mouse fibroblasts, 72 hour. Type of data set: toxicity, cell-based. To be noted: mouse, L929 mouse fibroblasts.

What is called IC50 is the midpoint of a concentration-inhibition curve. Take `CCC(C)Oc1ccc(-c2nc(CNCCCN(C)C)co2)cc1` (stereo not given): in data set [1], the half-maximal inhibitory concentration (IC50) was above 5 µg/mL. In data set [2], the 50% inhibitory concentration (IC50) at 72 h was above 10 µg/mL.

Take `CCCCc1ccc(-c2nc(CNCCCN(CC)CC)co2)cc1`: the IC50 in data set [1] was determined as 0.1 µg/mL (≈ 0.291 µM). Further, the IC50 at 72 h in data set [2] was determined as 0.89 µg/mL (≈ 2.59 µM).

On to `C/C(O)=C1\C(=O)NC(COCc2ccccc2)C1=O` (stereo not given), for which, in data set [1], the IC50 is above 5 µg/mL. In addition, the IC50 at 72 h in data set [2] is above 10 µg/mL.

`C/C(O)=C1/C(=O)CN(C)C1=O`: in data set [1], the concentration for half-maximal inhibition (IC50) is above 5 µg/mL. In addition, in data set [2], the 50% inhibitory concentration (IC50) at 72 h was above 10 µg/mL.

Take `CN(C)CCCNCc1coc(-c2ccc(OC3CCCC3)cc2)n1`: the IC50 in data set [1] is above 5 µg/mL. This compound also had an IC50 at 72 h in data set [2] above 10 µg/mL.

For `CCC(CC)Oc1ccc(-c2nc(CNCCCN(C)C)co2)cc1`, the IC50 in data set [1] was above 5 µg/mL. This compound also had an IC50 at 72 h in data set [2] above 10 µg/mL.

On to `CC(C)COc1ccc(-c2nc(CNCCCN(C)C)co2)cc1`, for which the IC50 in data set [1] is above 5 µg/mL. For the same compound, the half-maximal inhibitory concentration (IC50) at 72 h in data set [2] was above 10 µg/mL.

Take `CCCCCC(C)NCc1coc(-c2cccc(OCCCC)c2)n1` (stereo not given): the IC50 in data set [1] was 1.02 µg/mL (≈ 2.96 µM). The IC50 at 72 h in data set [2] is 1.7 µg/mL (≈ 4.93 µM).

For the compound `CCCCc1ccc(-c2nc(CNCCCN3CCOCC3)co2)cc1`, the concentration for half-maximal inhibition (IC50) in data set [1] worked out at 0.34 µg/mL (≈ 0.951 µM). The midpoint of inhibition in data set [2], the IC50 at 72 h, lay at 2.08 µg/mL (≈ 5.82 µM).

As for `CCCCCC(C)NCc1coc(-c2ccc(OCCCC)c(OC)c2)n1` (stereo not given), in data set [1], the half-maximal inhibitory concentration (IC50) came to 0.38 µg/mL (≈ 1.01 µM). For the same compound, in data set [2], the IC50 at 72 h worked out at 1.48 µg/mL (≈ 3.95 µM).

With `CCCCCC(C)NCc1coc(-c2ccc(OCc3ccc(F)cc3)cc2)n1` (stereo not given), in data set [1], the IC50 is 0.38 µg/mL (≈ 0.958 µM). Besides, 0.95 µg/mL (≈ 2.4 µM) corresponded to half-maximal inhibition in data set [2] (IC50 at 72 h).

Regarding `O=C(OC1=CC(=O)N(C(=O)OCc2ccccc2)C1COCc1ccccc1)c1ccccc1` (stereo not given), the IC50 in data set [1] is above 5 µg/mL. The half-maximal inhibitory concentration (IC50) at 72 h in data set [2] is above 10 µg/mL.

With `COc1cccc(-c2nc(CNCCC3CCCN3C)c(C)o2)c1` (stereo not given), in data set [1], the IC50 was 2.2 µg/mL (≈ 6.68 µM). Further, in data set [2], the half-inhibitory concentration (IC50) at 72 h was above 10 µg/mL.

Turning to `CCCCc1ccc(-c2nc(CNC3CCN(Cc4ccccc4)CC3)co2)cc1`, the concentration for half-maximal inhibition (IC50) in data set [1] was 0.16 µg/mL (≈ 0.396 µM). The compound also showed a half-inhibitory concentration (IC50) at 72 h in data set [2] of 0.96 µg/mL (≈ 2.38 µM).

As to `CCCCCC(C)NCc1nc(-c2ccc(C)cc2)oc1C` (stereo not given), the IC50 in data set [1] came out at 1.41 µg/mL (≈ 4.69 µM). The IC50 at 72 h in data set [2] is above 10 µg/mL.

In the case of `CCCCCC(C)NCc1nc(-c2ccc(OC)cc2)oc1C` (stereo not given), the 50% inhibitory concentration (IC50) in data set [1] was 1.49 µg/mL (≈ 4.71 µM). This compound also yielded an IC50 at 72 h in data set [2] above 10 µg/mL.

For `CCCCCC(C)NCc1coc(-c2ccc(OCc3ccc(Cl)c(Cl)c3)cc2)n1` (stereo not given), in data set [1], the concentration for half-maximal inhibition (IC50) came to 0.41 µg/mL (≈ 0.916 µM). In data set [2], this compound gave an IC50 at 72 h of 1.9 µg/mL (≈ 4.25 µM).

In the case of `CCCCc1ccc(-c2nc(CNCCCNC(=O)OC(C)(C)C)co2)cc1`, the IC50 in data set [1] came out at 0.74 µg/mL (≈ 1.91 µM). In data set [2], the IC50 at 72 h came to 1.47 µg/mL (≈ 3.79 µM).

With `CCCCCC(C)NCc1coc(-c2ccc(OCCCC)c(C)c2)n1` (stereo not given), the concentration for half-maximal inhibition (IC50) in data set [1] was found to be 0.42 µg/mL (≈ 1.17 µM). The compound further returned an IC50 at 72 h in data set [2] of 1.37 µg/mL (≈ 3.82 µM).

Regarding `COc1ccc(-c2nc(CNCCCN(C)C)c(C)o2)cc1`, the IC50 in data set [1] worked out at 3.13 µg/mL (≈ 10.3 µM). This compound also came in with an IC50 at 72 h in data set [2] above 10 µg/mL.

As for `Cc1oc(-c2ccccc2F)nc1CNCCC1CCCN1C` (stereo not given), the half-maximal inhibitory concentration (IC50) in data set [1] was above 5 µg/mL. Further, the 50% inhibitory concentration (IC50) at 72 h in data set [2] is above 10 µg/mL.

As to `CCCCc1ccc(-c2nc(CNCCCn3ccnc3)co2)cc1`, in data set [1], the IC50 came out at 0.3 µg/mL (≈ 0.886 µM). In addition, in data set [2], inhibition was half-maximal at 0.66 µg/mL (≈ 1.95 µM) (IC50 at 72 h).

Take `CCCCCC(C)NCc1nc(-c2cccc(OC)c2)oc1C` (stereo not given): the IC50 in data set [1] turned out to be 1.54 µg/mL (≈ 4.87 µM). The compound further yielded a 50% inhibitory concentration (IC50) at 72 h in data set [2] above 10 µg/mL.

On to `CCCCCC(C)NCc1nc(-c2cccc(C)c2)oc1C` (stereo not given), for which the half-inhibitory concentration (IC50) in data set [1] was 2.16 µg/mL (≈ 7.19 µM). The IC50 at 72 h in data set [2] was above 10 µg/mL.

Take `CN(C)CCCNCc1coc(-c2ccc(OCCc3ccccc3)cc2)n1`: the 50% inhibitory concentration (IC50) in data set [1] was above 5 µg/mL. Further, the concentration for half-maximal inhibition (IC50) at 72 h in data set [2] was above 10 µg/mL.

As to `CCCCCC(C)NCc1nc(-c2ccccc2F)oc1C` (stereo not given), the half-maximal inhibitory concentration (IC50) in data set [1] came out at 2.71 µg/mL (≈ 8.9 µM). The compound also came in with an IC50 at 72 h in data set [2] of 8.59 µg/mL (≈ 28.2 µM).

With `CC(C)c1ccc(-c2nc(CNCCCN(C)C)co2)cc1`, in data set [1], the IC50 was above 5 µg/mL. This compound displayed an IC50 at 72 h in data set [2] above 10 µg/mL.

With `CCCCc1ccc(-c2nc(CNCCc3cnc[nH]3)co2)cc1`, in data set [1], the IC50 turned out to be 0.37 µg/mL (≈ 1.14 µM). This compound also gave an IC50 at 72 h in data set [2] of 2.43 µg/mL (≈ 7.49 µM).

With `COc1ccc(-c2nc(CNCCC3CCCN3C)c(C)o2)cc1` (stereo not given), the IC50 in data set [1] is 2.44 µg/mL (≈ 7.41 µM). This compound also gave an IC50 at 72 h in data set [2] above 10 µg/mL.

With `C/C(O)=C1\C(=O)NC(CC(C)C)C1=O` (stereo not given), the IC50 in data set [1] is above 5 µg/mL. This compound also returned a concentration for half-maximal inhibition (IC50) at 72 h in data set [2] above 10 µg/mL.
